We go through 22 compounds from publication PMC8713996, “An anti-tuberculosis compound screen using a zebrafish infection model identifies an aspartyl-tRNA synthetase inhibitor” (Disease Models & Mechanisms, 2021).

Converted amounts (≈) assume the structure as drawn. Bounds are passed on as bounds.

Test [1] deals with M. marinum-tdTomato yolk-infected zebrafish embryos. Conditions: in vivo.
For a further test, the system named is M. tuberculosis H37Rv. Nature of the test: microbe, parasite or virus in culture. Type of test: cell-based. Conditions: Mycobacterium tuberculosis, read-out: MIC90 Mtb in vitro; for IC90: 144 h.
Test [2] concerns Mtb-infected THP-1 macrophages. The test can be described thus: microbe, parasite or virus in culture. It counts as cell-based, Mycobacterium tuberculosis. To be noted: for MIC50 / IC50: Mycobacterium tuberculosis, read-out: MIC50 Mtb ex vivo; for IC50: THP-1, 96 h.
The test system of a further test is M. marinum M^USA. Nature of the test: microbe, parasite or virus in culture. It counts as cell-based. Conditions: Mycobacterium marinum, read-out: MIC90 Mmar in vitro.

With `CC(C)=CCC/C(C)=C/CNCCNC1C2CC3CC(C2)CC1C3` (stereo not drawn) [SQ109], the “Bacterial load (integrated red fluorescence) in infected embryos vs DMSO” value (from here on “Bacterial load … vs DMSO”) in test [1] is “significant reduction of the bacterial signal”. `CC12CC3CC(C)(C1)CC(C(=O)Nc1nc4ccccc4s1)(C3)C2` [TBA8]: the MIC90 in the test on M. tuberculosis H37Rv stood at 15.8 ± 7.5 µM (≈ 5.38 µg/mL). Besides, in test [2], the MIC50 is 6.9 ± 8.7 µM (≈ 2.35 µg/mL). For the compound `COc1ccc(Cc2nn3c(-c4ccccc4)nnc3s2)cc1` [TBA29], the MIC90 with M. tuberculosis H37Rv was determined as 3.6 ± 0.9 µM (≈ 1.16 µg/mL). The MIC50 in test [2] is 6.1 ± 4 µM (≈ 1.97 µg/mL). As for `CC(C)C(=O)Nc1ccc(C(=O)Oc2ccccc2)c(O)c1` [TBA32], the MIC90 with M. tuberculosis H37Rv came out at 2 ± 0.5 µM (≈ 0.599 µg/mL). The MIC50 in test [2] came to 9.6 ± 16.6 µM (≈ 2.87 µg/mL). In the case of `O=C(Nc1ccc(Cl)cc1)NC1CC2CCC1C2` (stereo not drawn) [TBA37], the MIC90 in the test on M. tuberculosis H37Rv is 13.6 ± 4.3 µM (≈ 3.6 µg/mL). Moreover, the MIC50 in test [2] worked out at 5.5 ± 3.6 µM (≈ 1.46 µg/mL).

In the case of `Cc1ccc(-c2nnc3sc(Cc4ccccc4)nn23)cc1` [TBA38], the MIC90 with M. tuberculosis H37Rv amounted to 9.9 ± 1.9 µM (≈ 3.03 µg/mL). The MIC50 in test [2] amounted to 5.6 ± 3.4 µM (≈ 1.72 µg/mL). As to `Cc1ccc(NC(=O)C23CC4CC(CC2C4)C3)cc1` [TBA52], the IC90 with M. tuberculosis H37Rv came out at 9.6 ± 5.3 µM. For the same compound, in test [2], the IC50 worked out at 4.2 ± 6 µM. Take `COc1cccc(OCCNC(=O)c2cc([N+](=O)[O-])cc([N+](=O)[O-])c2)c1` [TBA57]: in the test with M. tuberculosis H37Rv, the MIC90 came to 1.7 ± 3.1 µM (≈ 0.614 µg/mL). The MIC50 in test [2] was determined as 1.6 ± 0.7 µM (≈ 0.578 µg/mL). As for `O=C(OCC(=O)c1c[nH]c2ccccc12)c1ccc([N+](=O)[O-])s1` [TBA61], in the test on M. tuberculosis H37Rv, the MIC90 amounted to 2.2 ± 0.2 µM (≈ 0.727 µg/mL). Moreover, in test [2], the “Intracellular activity (bacterial viability, macrophage protection)” value is given as “did not show activity” and the MIC50 is greater than 30 µM.

`COc1ccc(CNC(=O)c2c(C)nc3ccccn23)cc1` [TBA117]: in the test on M. tuberculosis H37Rv, the MIC90 amounted to 4 ± 1.4 µM (≈ 1.18 µg/mL). The MIC50 in test [2] came to 0.4 ± 0.1 µM (≈ 0.118 µg/mL). Take `Cc1nc2ccccn2c1C(=O)NCc1ccc2c(c1)OCO2` [TBA120]: the MIC90 in the test with M. tuberculosis H37Rv is 5.9 ± 2.6 µM (≈ 1.83 µg/mL). The MIC50 in test [2] was 0.5 ± 0.2 µM (≈ 0.155 µg/mL). Take `CC(C)(C)c1ccc(Cn2cnc([N+](=O)[O-])n2)cc1` [TBA139]: the IC90 with M. tuberculosis H37Rv turned out to be 11.8 ± 12.4 µM. Further, the IC50 in test [2] stood at 4.6 ± 7.1 µM.

As to `O=C(Nc1ccc(F)cc1)NC1CCCCCCC1` [TBA145], the MIC90 in the test on M. tuberculosis H37Rv was determined as 19 ± 5.7 µM (≈ 5.02 µg/mL). Besides, the MIC50 in test [2] is 8 ± 14.2 µM (≈ 2.11 µg/mL). As to `O=c1c2ccccc2oc2nc3n(c(=O)c12)CCCS3` [TBA161-A, 3,4-dihydro-chromeno[2′,3′:4,5]pyrimido[2,1-b][1,3]thiazine-6,7-dione], the MIC90 with M. tuberculosis H37Rv turned out to be 3.8 ± 3.1 µM (≈ 1.09 µg/mL); in the test on M. marinum M^USA, 2.8 ± 1.7 µM (≈ 0.802 µg/mL). Moreover, in test [2], the MIC50 is 1.1 ± 0.9 µM (≈ 0.315 µg/mL). For `CCc1cccc2c(C(=O)COC(=O)c3ccc([N+](=O)[O-])s3)c[nH]c12` [TBA172], the MIC90 in the test on M. tuberculosis H37Rv came to 2.4 ± 0.4 µM (≈ 0.86 µg/mL). Moreover, in test [2], the “Intracellular activity (bacterial viability, macrophage protection)” value was “did not show activity” and the MIC50 is greater than 30 µM. For `COc1nc2ccc(Br)cc2cc1[C@@H](c1ccccc1)[C@@](O)(CCN(C)C)c1cccc2ccccc12` [bedaquiline], the “Bacterial load … vs DMSO” value in test [1] is “significant reduction of the bacterial signal”. As to `C[C@]1(COc2ccc(N3CCC(Oc4ccc(OC(F)(F)F)cc4)CC3)cc2)Cn2cc([N+](=O)[O-])nc2O1` [delamanid], the “Bacterial load … vs DMSO” value in test [1] is “significant reduction of the bacterial signal”. On the same count and under the same terms, the entry for `CCc1cc(C(N)=S)ccn1` [ethionamide] is “significant reduction of the bacterial signal”. For `O=c1nc(N2CCN(CC3CCCCC3)CC2)sc2c([N+](=O)[O-])cc(C(F)(F)F)cc12` [macozinone], in test [1], the “Bacterial load … vs DMSO” value was “significant reduction of the bacterial signal”. In the case of `O=[N+]([O-])c1cn2c(n1)OC[C@@H](OCc1ccc(OC(F)(F)F)cc1)C2` [pretonamid], the “Bacterial load … vs DMSO” value in test [1] is reported as “significant reduction of the bacterial signal”. `CO[C@H]1/C=C/O[C@@]2(C)Oc3c(C)c(O)c4c(O)c(c(/C=N/N5CCN(C)CC5)c(O)c4c3C2=O)NC(=O)/C(C)=C\C=C\[C@H](C)[C@H](O)[C@@H](C)[C@@H](O)[C@@H](C)[C@H](OC(C)=O)[C@@H]1C` [rifampicin]: the “Bacterial load … vs DMSO” value in test [1] is “significant reduction of the bacterial signal”.

For `CC(=O)NC[C@H]1CN(c2ccc(N3CCSCC3)c(F)c2)C(=O)O1` [sutezolid], the “Bacterial load … vs DMSO” value in test [1] is “significant reduction of the bacterial signal”.
